pIC50: −log10 of the molar value.
Test system: 317291-083-R-J1-PDC complex spheroids, viability
Experiment: Anticancer human tumor 317291-083-R-J1-PDC patient-derived soft tissue sarcoma cell line growth inhibition [GQUAD]
Details: for pIC50: curve of first compound; for viability, T/C: stronger effect = lower value
Method in brief: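 Viability of tumor cells grown as complex spheroids with endothelial and stromal cells, exposed to drug combinations. Top concentration at or near clinical Cmax (else 10 microM), diluted in half-log increments.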

[1] = second compound 0.0316 µM, first compound 0.0316 µM
[2] = second compound 0.0316 µM, first compound 0.1 µM
[3] = second compound 0.0316 µM, first compound 0.316 µM
[4] = second compound 0.0316 µM, first compound 1 µM
[5] = second compound 0.0316 µM, first compound 3.16 µM
[6] = second compound 0.0316 µM, first compound 10 µM
[7] = second compound 0.1 µM, first compound 0.0316 µM
[8] = second compound 0.1 µM, first compound 0.1 µM
[9] = second compound 0.1 µM, first compound 0.316 µM
[10] = second compound 0.1 µM, first compound 1 µM
[11] = second compound 0.1 µM, first compound 3.16 µM
[12] = second compound 0.1 µM, first compound 10 µM
[13] = second compound 0.316 µM, first compound 0.0316 µM
[14] = second compound 0.316 µM, first compound 0.1 µM
[15] = second compound 0.316 µM, first compound 0.316 µM
[16] = second compound 0.316 µM, first compound 1 µM
[17] = second compound 0.316 µM, first compound 3.16 µM
[18] = second compound 0.316 µM, first compound 10 µM
[19] = second compound 1 µM, first compound 0.0316 µM
[20] = second compound 1 µM, first compound 0.1 µM
[21] = second compound 1 µM, first compound 0.316 µM
[22] = second compound 1 µM, first compound 1 µM
[23] = second compound 1 µM, first compound 3.16 µM
[24] = second compound 1 µM, first compound 10 µM
[25] = second compound 3.16 µM, first compound 0.0316 µM
[26] = second compound 3.16 µM, first compound 0.1 µM
[27] = second compound 3.16 µM, first compound 0.316 µM
[28] = second compound 3.16 µM, first compound 1 µM
[29] = second compound 3.16 µM, first compound 3.16 µM
[30] = second compound 3.16 µM, first compound 10 µM
[31] = second compound 10 µM, first compound 0.0316 µM
[32] = second compound 10 µM, first compound 0.1 µM
[33] = second compound 10 µM, first compound 0.316 µM
[34] = second compound 10 µM, first compound 1 µM
[35] = second compound 10 µM, first compound 3.16 µM
[36] = second compound 10 µM, first compound 10 µM
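Further: spheroids exposed to compounds for one week before readout.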
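Wherever viability, T/C is given: percent viability relative to DMSO vehicle wells taken as 100%.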

Cc1cccc(N(C)C(=O)C2C(O)CCN2c2nc(C)cc(C(F)(F)F)c2C#N)c1 (stereo not drawn) + CN(C)c1ccc(Nc2c3ccc(NC(=O)CCN4CCCC4)cc3nc3cc(NC(=O)CCN4CCCC4)ccc23)cc1
pIC50 (second compound 0.0316 µM): < 5.00 | pIC50 (second compound 0.1 µM): < 5.00 | pIC50 (second compound 0.316 µM): < 5.00 | pIC50 (second compound 1 µM): 6.26 | pIC50 (second compound 3.16 µM): > 7.50 | pIC50 (second compound 10 µM): > 7.50 | viability, T/C [1]: 101% | viability, T/C [2]: 107% | viability, T/C [3]: 93.1% | viability, T/C [4]: 91.9% | viability, T/C [5]: 85.5% | viability, T/C [6]: 78.1% | viability, T/C [7]: 107% | viability, T/C [8]: 99.2% | viability, T/C [9]: 116% | viability, T/C [10]: 84.8% | viability, T/C [11]: 75.9% | viability, T/C [12]: 83.9% | viability, T/C [13]: 103% | viability, T/C [14]: 93.3% | viability, T/C [15]: 79.9% | viability, T/C [16]: 62.9% | viability, T/C [17]: 79.8% | viability, T/C [18]: 46.5% | viability, T/C [19]: 68.3% | viability, T/C [20]: 51.1% | viability, T/C [21]: 57.4% | viability, T/C [22]: 45.1% | viability, T/C [23]: 42.6% | viability, T/C [24]: 30% | viability, T/C [25]: 29.9% | viability, T/C [26]: 46.2% | viability, T/C [27]: 21.3% | viability, T/C [28]: 25.1% | viability, T/C [29]: 17.1% | viability, T/C [30]: 9.2% | viability, T/C [31]: 7.38% | viability, T/C [32]: 11.6% | viability, T/C [33]: 10.1% | viability, T/C [34]: 3.67% | viability, T/C [35]: 3.05% | viability, T/C [36]: 1.88%

CC(C)n1c(=O)n(C)c2cnc3cc(F)c(-c4ccc(OCCCN5CCCCC5)nc4)cc3c21 + Cc1[nH]c2ccc(F)cc2c1-c1nc2c3cccnc3c3ncccc3c2[nH]1
pIC50 (second compound 0.0316 µM): < 5.00 | pIC50 (second compound 0.1 µM): 5.06 | pIC50 (second compound 0.316 µM): 5.06 | pIC50 (second compound 1 µM): < 5.00 | pIC50 (second compound 3.16 µM): 5.10 | pIC50 (second compound 10 µM): < 5.00 | viability, T/C [1]: 104% | viability, T/C [2]: 111% | viability, T/C [3]: 92.5% | viability, T/C [4]: 97.1% | viability, T/C [5]: 86.2% | viability, T/C [6]: 50.5% | viability, T/C [7]: 104% | viability, T/C [8]: 101% | viability, T/C [9]: 96.3% | viability, T/C [10]: 96.7% | viability, T/C [11]: 92.9% | viability, T/C [12]: 43.3% | viability, T/C [13]: 88.6% | viability, T/C [14]: 103% | viability, T/C [15]: 105% | viability, T/C [16]: 85% | viability, T/C [17]: 106% | viability, T/C [18]: 42.9% | viability, T/C [19]: 114% | viability, T/C [20]: 108% | viability, T/C [21]: 93.7% | viability, T/C [22]: 96.3% | viability, T/C [23]: 92.7% | viability, T/C [24]: 53.5% | viability, T/C [25]: 80.7% | viability, T/C [26]: 103% | viability, T/C [27]: 97.6% | viability, T/C [28]: 72.4% | viability, T/C [29]: 93.8% | viability, T/C [30]: 39.7% | viability, T/C [31]: 99.2% | viability, T/C [32]: 107% | viability, T/C [33]: 83.5% | viability, T/C [34]: 92.5% | viability, T/C [35]: 85.2% | viability, T/C [36]: 50%

Nc1ccn(C2OC(CO)C(O)C2(F)F)c(=O)n1 (stereo not drawn) + Cc1cnc(CNC(=O)c2c(=O)c3ccc(N4CCCN(C)CC4)nc3n3c2sc2ccccc23)cn1
pIC50 (second compound 0.0316 µM): 7.46 | pIC50 (second compound 0.1 µM): > 7.50 | pIC50 (second compound 0.316 µM): > 7.50 | pIC50 (second compound 1 µM): > 7.50 | pIC50 (second compound 3.16 µM): > 7.50 | pIC50 (second compound 10 µM): > 7.50 | viability, T/C [1]: 53.1% | viability, T/C [2]: 20.4% | viability, T/C [3]: 17.6% | viability, T/C [4]: 11.2% | viability, T/C [5]: 8.79% | viability, T/C [6]: 6.85% | viability, T/C [7]: 43.9% | viability, T/C [8]: 39.9% | viability, T/C [9]: 11.6% | viability, T/C [10]: 15.9% | viability, T/C [11]: 8.93% | viability, T/C [12]: 7.45% | viability, T/C [13]: 43.4% | viability, T/C [14]: 19.6% | viability, T/C [15]: 11.2% | viability, T/C [16]: 8.54% | viability, T/C [17]: 14.6% | viability, T/C [18]: 8.2% | viability, T/C [19]: 31.5% | viability, T/C [20]: 21.2% | viability, T/C [21]: 26.3% | viability, T/C [22]: 6.79% | viability, T/C [23]: 8.1% | viability, T/C [24]: 7.55% | viability, T/C [25]: 19% | viability, T/C [26]: 17.5% | viability, T/C [27]: 9.09% | viability, T/C [28]: 7.43% | viability, T/C [29]: 5.04% | viability, T/C [30]: 5.88% | viability, T/C [31]: 16.9% | viability, T/C [32]: 24.9% | viability, T/C [33]: 7% | viability, T/C [34]: 8.35% | viability, T/C [35]: 5.09% | viability, T/C [36]: 8.27%

O=c1[nH]cc(F)c(=O)[nH]1 + Cc1[nH]c2ccc(F)cc2c1-c1nc2c3cccnc3c3ncccc3c2[nH]1
pIC50 (second compound 0.0316 µM): 5.27 | pIC50 (second compound 0.1 µM): 5.77 | pIC50 (second compound 0.316 µM): 5.75 | pIC50 (second compound 1 µM): 5.80 | pIC50 (second compound 3.16 µM): 5.57 | pIC50 (second compound 10 µM): 6.08 | viability, T/C [1]: 118% | viability, T/C [2]: 117% | viability, T/C [3]: 116% | viability, T/C [4]: 69.5% | viability, T/C [5]: 73.3% | viability, T/C [6]: 31.8% | viability, T/C [7]: 110% | viability, T/C [8]: 106% | viability, T/C [9]: 96.7% | viability, T/C [10]: 62.2% | viability, T/C [11]: 34.7% | viability, T/C [12]: 30.6% | viability, T/C [13]: 108% | viability, T/C [14]: 104% | viability, T/C [15]: 89.1% | viability, T/C [16]: 63.6% | viability, T/C [17]: 35.4% | viability, T/C [18]: 31.8% | viability, T/C [19]: 93.9% | viability, T/C [20]: 102% | viability, T/C [21]: 102% | viability, T/C [22]: 60.9% | viability, T/C [23]: 36.5% | viability, T/C [24]: 31.9% | viability, T/C [25]: 99.3% | viability, T/C [26]: 86.6% | viability, T/C [27]: 79.2% | viability, T/C [28]: 45.2% | viability, T/C [29]: 64.3% | viability, T/C [30]: 30.2% | viability, T/C [31]: 73.6% | viability, T/C [32]: 75.9% | viability, T/C [33]: 81.5% | viability, T/C [34]: 44.5% | viability, T/C [35]: 33% | viability, T/C [36]: 27.4%

From PubChem BioAssay AID2060497 (Molecular Pharmacology Branch, DTP, NCI, 2025)
